Entries after “also recorded” stand apart in the source; their conditions may differ.
Legend:
[1] = system: TAR RNA; experiment: L-arginine-Amberlite affinity column elution of TAR RNA; type: binding, HIV-1; settings: concentration that elutes 50% of TAR RNA from L-arginine-Amberlite affinity column
[2] = target: T1, CXCR4 (Homo sapiens, UniProt P61073); experiment: Inhibition of anti-CXCR4 mAb (12G5) binding, flow cytometry, SUP-T1 cells; parameters: endogenous in cells; settings: for affinity for CXCR4: inhibition of 12G5 binding to SUP-T1 cells or PMBC
T1 sequence (P61073 whole entry): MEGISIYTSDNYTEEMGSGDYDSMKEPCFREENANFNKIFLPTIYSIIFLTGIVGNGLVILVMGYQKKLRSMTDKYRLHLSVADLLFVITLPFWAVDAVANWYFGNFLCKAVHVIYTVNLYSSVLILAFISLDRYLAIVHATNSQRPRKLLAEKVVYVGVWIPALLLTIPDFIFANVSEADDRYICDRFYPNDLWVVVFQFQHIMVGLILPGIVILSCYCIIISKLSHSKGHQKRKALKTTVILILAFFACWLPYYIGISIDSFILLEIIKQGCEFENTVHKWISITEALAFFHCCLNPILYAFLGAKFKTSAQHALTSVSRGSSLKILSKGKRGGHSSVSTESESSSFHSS
Method: Measurement of chemokine receptors CXCR4, CCR5 and the CD4 receptor on phytohemagglutinin (PHA)-activated PBMC was performed by flow cytometry analysis. Briefly, 0.5×10^6 cells were washed in ice-cold phosphate-buffered saline (PBS) and incubated for 30 minutes at 4÷C. with fluorescent labelled mAb 12G5 and 2D7 and Leu3a (Becton Dickinson, San Jose, Calif.) or with isotype control mAbs in the presence or absence of the test compound. Then, the cells were washed with ice-cold PBS and were fixed in PBS containing 1% formaldehyde. For each sample, 10,000 events were analysed in a FACScalibur™ system (Becton Dickinson). Data were acquired and analysed with CellQuest™ software (Becton Dickinson).

[3] = system: R5 strain Ba-L; experiment: Virus-binding assay, MT-4 cells; type: cell-based, HIV-1; settings: dose dependent; data not shown
Method: MT4 cells (5×10^5) were incubated with supernatant containing 1×10^5 pg of p24 antigen of wild type HIV-1 in the presence of different concentrations of the test compound. One hour after infection, cells were washed 3 times with PBS and p24 antigen bound to the cells was determined by a commercial ELISA test (Coulter, Spain).

[4] = system: TAR RNA; experiment: RNase A footprinting of TAR RNA; type: binding, HIV-1; settings: 1 μM TAR, 200 pM RNase A
Method: In a typical experiment 10 μl of 5 mM cacodylate buffer pH 6.5, containing 25 mM KCl and 50-100 ng 5′ ^32P-labeled TAR RNA (approximately 0.5-1 μM) were incubated with 200 pM RNase A (Sigma) at room temperature for 10 minutes in the presence of Tat R52 and the conjugates of the invention at various concentrations. In the competition experiments, the mixture was supplemented with 0.5 μg yeast tRNA (Sigma). After the incubation, 10 μl of formamide/bromphenol blue loading buffer was added to the samples. The samples were heated to 80° C. for 2 min and were resolved by electrophoresis on 40 cm×0.8 mm 20% polyacrylamide denaturing gel (7M urea) for 3 hours at 55° C. The results were visualized by a phosphoimager as described above and quantitated using ImageQuant software.
TAR RNA and RNase A concentrations were established by co-titration. To produce a “single-hit” kinetics conditions, 1 μM TAR versus 200 pM RNase A were selected. Tat R52 and AAC concentrations were determined by titration. […] RNase A cleaved TAR RNA in an uneven manner (FIG. 4A., lane 2). The most susceptible regions for cleavage were the single-stranded loop, nucleotides U31-G34 as well as C24 and U25 of the bulge. Strong cleavage was also observed at G21-G41 and A20-U42 pairs (lower stem). Binding of R52 (2-4 μM) caused a weakening of the bands in the upper stem region, (G26-C39, A27-C38, as well as U40) (FIG. 4A., lanes 3, 4). At 4 μM R52, the cleavage at G34 (loop) was enhanced, as well as a certain enhancement of bands A20, G21, U23 and U25 was observed. Remarkably, the band corresponding to the R52-TAR complex still was observed on the gels even after electrophoresis under strongly denaturing conditions. In the presence of R4K (10-20 μM), the upper stem (G26-C29), the lower stem and the bulge (G21-U23, partially C24 and U25) were protected as well as C38, C39 and U40. Cleavage at C19 and A20 of the lower stem and C30, G33 and G34 of the loop was enhanced by 10 μM R4K, whereas with 20 μM R4K the protection of C30, G34 and A20-G21 was observed (FIG. 4A., lanes 5, 6). […] Cleavages at C19-A20 in the lower stem as well as at G30 and G34 in the loop were observed (FIG. 4A., lanes 7, 8). In the presence of GB4K (20 μM) no significant protection was observed.

[5] = target: T1, CXCR4; settings: SDF-1α 20 ng/ml

For `N=C(N)NCCCC(N)C(=O)NCC1OC(OC2C(NC(=O)C(N)CCCNC(=N)N)CC(NC(=O)C(N)CCCNC(=N)N)C(OC3OC(CO)C(O)C(NC(=O)C(N)CCCNC(=N)N)C3O)C2O)C(O)C(O)C1O` (stereo not drawn) [R4K, Tetraargininamido-kanamycin A conjugate], the CE50 [1] was 2.5 mM, the IC50 [2] was 3.7 µM and the “affinity for CXCR4” value [2] was “high affinity”. For the same compound, the “binding of the R5 strain Ba-L to MT-4 cells” value [3] was “inhibited the binding”, the “concentration giving effective protection of TAR” value [4] was 10 µM and the “SDF-1α-dependent Ca2+ signal” value [5] was “inhibited; also recorded: blocked”.
For “Triargininamido-gentamicin conjugate [R3G]”, the CE50 [1] was 1.4 mM, the IC50 [2] was 7.7 µM and the “affinity for CXCR4” value [2] was “high affinity”. For the same compound, the “binding of the R5 strain Ba-L to MT-4 cells” value [3] was “inhibited the binding”, the “concentration giving effective protection of TAR” value [4] was 4 µM and the “SDF-1α-dependent Ca2+ signal” value [5] was “inhibited; also recorded: blocked”.
